According to patent publication US20250017914A1, “6-AZA-QUINOLINE DERIVATIVES AND RELATED USES” (Black Diamond Therapeutics, Inc., priority 2021, published 2025):

Biological target: T1, BaF3 BRAF-KIAA1549 fusion cells (Homo sapiens, UniProt P15056)
T1 construct: The BRAF-KIAA1549 fusion mutant was subcloned into pMXs-IRES-Blasticidin (RTV-016, Cell Biolabs, San Diego, CA); No tag given; Q9HCM3 (UPF0606 protein KIAA1549)
Test: BaF3 BRAF-KIAA1549 fusion cell proliferation assay (CellTiterGlo, 96 hours)
Format: cell-based
Outline: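 BaF3 cells retrovirally transduced with BRAF-KIAA1549 fusion and blasticidin-selected were plated at 7×10^4 c/well in RPMI, 10% heat-inactivated FBS, 1% L-glutamine, and exposed to compound for 96 hours. Growth was read as ATP content by CellTiterGlo luminescence. IC50 was fitted by Levenberg-Marquardt, normalised to DMSO-treated cells.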

T1 sequence (P15056 whole entry, change not shown, the tested form may be a part): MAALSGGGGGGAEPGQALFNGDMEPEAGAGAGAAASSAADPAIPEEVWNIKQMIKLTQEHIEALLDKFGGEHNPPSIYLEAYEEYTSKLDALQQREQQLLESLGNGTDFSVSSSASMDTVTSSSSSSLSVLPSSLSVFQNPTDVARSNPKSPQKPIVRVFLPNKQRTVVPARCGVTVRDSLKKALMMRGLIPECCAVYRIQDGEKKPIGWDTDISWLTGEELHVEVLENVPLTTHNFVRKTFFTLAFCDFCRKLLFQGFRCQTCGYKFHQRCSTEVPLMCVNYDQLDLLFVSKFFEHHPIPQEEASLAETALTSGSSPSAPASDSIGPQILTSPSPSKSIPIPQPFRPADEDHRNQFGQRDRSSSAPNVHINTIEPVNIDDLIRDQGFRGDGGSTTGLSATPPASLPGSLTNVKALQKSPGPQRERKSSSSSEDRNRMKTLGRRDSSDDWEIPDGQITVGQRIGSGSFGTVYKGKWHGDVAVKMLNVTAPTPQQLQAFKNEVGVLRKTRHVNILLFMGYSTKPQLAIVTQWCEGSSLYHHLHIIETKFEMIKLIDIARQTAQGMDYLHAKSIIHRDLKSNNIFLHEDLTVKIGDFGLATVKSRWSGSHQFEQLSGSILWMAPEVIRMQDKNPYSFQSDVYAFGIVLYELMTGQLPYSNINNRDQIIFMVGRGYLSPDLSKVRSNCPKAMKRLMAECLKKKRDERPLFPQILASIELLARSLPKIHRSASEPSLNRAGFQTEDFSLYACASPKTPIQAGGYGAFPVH

Structure (SMILES)	GI50 (Table A1) [nM]	GI50 (Table A2) [nM]
Cc1ncc(NC(=O)c2cc(C(C)(C)C#N)ccn2)cc1-c1cnc2cc(N)ncc2c1 [Compound 176, N-(5-(7-amino-1,6-naphthyridin-3-yl)-6-methylpyridin-3-yl)-4-(2-cyanopropan-2-yl)picolinamide]	20 to 100	
CNc1cc2ncc(-c3cc(NC(=O)c4cncc(C(F)(F)F)c4)ccc3C)cc2cn1 [Compound 3, N-(4-methyl-3-(7-(methylamino)-1,6-naphthyridin-3-yl)phenyl)-5-(trifluoromethyl)nicotinamide]	< 20	
CNc1cc2ncc(-c3cc(NC(=O)c4cccc5c4CCCC5O)cnc3C)cc2cn1 (stereo not shown) [Compound 199, 5-hydroxy-N-(6-methyl-5-(7-(methylamino)-1,6-naphthyridin-3-yl)pyridin-3-yl)-5,6,7,8-tetrahydronaphthalene-1-carboxamide]		≥ 500
CNc1cc2ncc(-c3cc(NC(=O)c4noc5c4CCCC5)ccc3C)cc2cn1 [Compound 228, N-(4-methyl-3-(7-(methylamino)-1,6-naphthyridin-3-yl)phenyl)-4,5,6,7-tetrahydrobenzo[d]isoxazole-3-carboxamide]		100 to 500
CNc1cc2ncc(-c3cc(NC(=O)c4nccc(C(F)(F)F)c4Cl)ccc3C)cc2cn1 [Compound 6, 3-Chloro-N-(4-methyl-3-(7-(methylamino)-1,6-naphthyridin-3-yl)phenyl)-4-(trifluoromethyl)picolinamide]	< 20	
CNc1cc2ncc(-c3cc(NC(=O)c4cccc5c4OC(C)C5)cnc3C)cc2cn1 (stereo not shown) [Compound 239, 2-methyl-N-(6-methyl-5-(7-(methylamino)-1,6-naphthyridin-3-yl)pyridin-3-yl)-2,3-dihydrobenzofuran-7-carboxamide]		≥ 500
CNc1ncc2cc(-c3cc(NC(=O)c4ccnc(C5(F)CC5)c4)ccc3C)cnc2c1C#N [Compound 271, N-[3-[8-cyano-7-(methylamino)-1,6-naphthyridin-3-yl]-4-methyl-phenyl]-2-(1-fluorocyclopropyl)pyridine-4-carboxamide]		20 to 100
CNc1cc2ncc(-c3cc(NC(=O)c4cc(C(O)C5CC5)ccn4)cnc3C)cc2cn1 (stereo not shown) [Compound 201, 4-(cyclopropyl(hydroxy)methyl)-N-(6-methyl-5-(7-(methylamino)-1,6-naphthyridin-3-yl)pyridin-3-yl)picolinamide]		20 to 100
CNc1cc2ncc(-c3cc(NC(=O)c4cc(C(C)(C)C#N)ccn4)ccc3C)cc2cn1 [Compound 14, 4-(2-Cyanopropan-2-yl)-N-(4-methyl-3-(7-(methylamino)-1,6-naphthyridin-3-yl)phenyl)picolinamide]	< 20	
CNc1cc2ncc(-c3cc(F)c(F)c(NC(=O)c4cc(C(C)(C)C#N)ccn4)c3)cc2cn1 [Compound 46, 4-(2-Cyanopropan-2-yl)-N-(2,3-difluoro-5-(7-(methylamino)-1,6-naphthyridin-3-yl)phenyl)picolinamide]	100 to 500	
CNc1cc2ncc(-c3cc(NC(=N)c4cc(C(F)(F)F)ccn4)ccc3C)cc2cn1 [Compound 61, N-(4-Methyl-3-(7-(methylamino)-1,6-naphthyridin-3-yl)phenyl)-4-(trifluoromethyl)picolinimidamide]	100 to 500	
CNc1cc2ncc(-c3cc(NC(=O)c4cc(C(N(C)C)C(F)(F)F)ccn4)ccc3C)cc2cn1 (stereo not shown) [Compound 218, 4-(1-(dimethylamino)-2,2,2-trifluoroethyl)-N-(4-methyl-3-(7-(methylamino)-1,6-naphthyridin-3-yl)phenyl)picolinamide]		20 to 100
CNc1cc2ncc(-c3cc(NC(=O)c4cc(C(O)C(C)C)ccn4)cnc3C)cc2cn1 (stereo not shown) [Compound 202, 4-(1-hydroxy-2-methylpropyl)-N-(6-methyl-5-(7-(methylamino)-1,6-naphthyridin-3-yl)pyridin-3-yl)picolinamide]		20 to 100
CNc1cc2ncc(-c3cc(NC(=O)c4cnc5n4C[C@@H](C)CC5)ccc3C)cc2cn1 (single isomer, unassigned) [Compound 231]		20 to 100
CNc1cc2ncc(-c3cc(NC(=O)c4noc5c4CC(C(C)(C)C)CC5)cnc3C)cc2cn1 (stereo not shown) [Compound 241, 5-(tert-butyl)-N-(6-methyl-5-(7-(methylamino)-1,6-naphthyridin-3-yl)pyridin-3-yl)-4,5,6,7-tetrahydrobenzo[d]isoxazole-3-carboxamide]		100 to 500
CNc1cc2ncc(-c3cc(NC(=O)c4cc(C(C)(F)F)ccn4)cnc3C)cc2cn1 [Compound 23, 4-(1,1-Difluoroethyl)-N-(6-methyl-5-(7-(methylamino)-1,6-naphthyridin-3-yl)pyridin-3-yl)picolinamide]	20 to 100	
CNc1cc2ncc(-c3cc(NC(=O)N(C)c4ccnc(C(F)F)c4)cnc3C)cc2cn1 [Compound 190, 1-(2-(difluoromethyl)pyridin-4-yl)-1-methyl-3-(6-methyl-5-(7-(methylamino)-1,6-naphthyridin-3-yl)pyridin-3-yl)urea]		100 to 500
CNc1cc2ncc(-c3cc(NC(=O)c4cnc5n4CC(C(F)F)CC5)cnc3C)cc2cn1 (stereo not shown) [Compound 251, 6-(difluoromethyl)-N-(6-methyl-5-(7-(methylamino)-1,6-naphthyridin-3-yl)pyridin-3-yl)-5,6,7,8-tetrahydroimidazo[1,2-a]pyridine-3-carboxamide]		100 to 500
CNc1cc2ncc(-c3cc(NC(=O)c4cccc5c4CCCC5=O)cnc3C)cc2cn1 [Compound 198, N-(6-methyl-5-(7-(methylamino)-1,6-naphthyridin-3-yl)pyridin-3-yl)-5-oxo-5,6,7,8-tetrahydronaphthalene-1-carboxamide]		≥ 500
CNc1cc2ncc(-c3cc(NC(=O)c4noc5c4CCCCC5)cnc3C)cc2cn1 [Compound 245, N-(6-methyl-5-(7-(methylamino)-1,6-naphthyridin-3-yl)pyridin-3-yl)-5,6,7,8-tetrahydro-4H-cyclohepta[d]isoxazole-3-carboxamide]		20 to 100
CNc1cc2nc(C#N)c(-c3cc(NC(=O)c4ccnc(C(F)(F)F)c4)ccc3C)cc2cn1 [Compound 79, N-(3-(2-cyano-7-(methylamino)-1,6-naphthyridin-3-yl)-4-methylphenyl)-2-(trifluoromethyl)isonicotinamide]	< 20	
CNc1cc2ncc(-c3cc(NC(=O)c4ccnc(C5(F)CC5)c4)c(F)cc3C)cc2cn1 [Compound 221, N-(2-fluoro-4-methyl-5-(7-(methylamino)-1,6-naphthyridin-3-yl)phenyl)-2-(1-fluorocyclopropyl)isonicotinamide]		20 to 100
Cc1ccc(NC(=O)c2cc(C(F)F)ccn2)cc1-c1cnc2cc(NCCC#N)ncc2c1 [Compound 78, N-(3-(7-((2-cyanoethyl)amino)-1,6-naphthyridin-3-yl)-4-methylphenyl)-4-(difluoromethyl)picolinamide]	20 to 100	
CNc1cc2ncc(-c3cc(NC(=O)c4n[nH]c5c4C[C@H](C)O[C@@H]5C)ccc3C)cc2cn1 [Compound 264, (5S,7R)-5,7-dimethyl-N-(4-methyl-3-(7-(methylamino)-1,6-naphthyridin-3-yl)phenyl)-1,4,5,7-tetrahydropyrano[3,4-c]pyrazole-3-carboxamide]		20 to 100
CNc1cc2ncc(-c3c(C)ncc(NC(=O)c4cc(C(C)(C)C#N)ccn4)c3Cl)cc2cn1 [Compound 197, N-[4-chloro-6-methyl-5-[7-(methylamino)-1,6-naphthyridin-3-yl]-3-pyridyl]-4-(1-cyano-1-methyl-ethyl)pyridine-2-carboxamide]		≥ 500
